From patent US20240174629A1 (OTCPHARM JSC, priority 2021, published 2024)
Converted amounts (≈) assume the structure as drawn. Where a name gives a salt, the structure may show the parent alone. Read-outs that look alike come from different tables or passages of the source.

Assays:
MDCK cells [1] = assay: Cytotoxicity, microtetrazolium test (MTT); settings: 48 h, mean ±SD
[2] = Cytotoxicity, microtetrazolium test (MTT); settings: dog, MDCK cells, CC50 (MDCK), mean ±SD
[3] = Acute oral toxicity, fixed dose method (OECD 420); settings: for GHS hazard class: acute oral toxicity in mice, UN GHS classification; for Died / Survived: female BALB/c mice, intragastric
SARS-CoV-2 coronavirus = assay: Activity against SARS-CoV-2 coronavirus on U2-OS ACE2 cells (S-Fuse, GFP signal); format: cell-based; settings: Severe acute respiratory syndrome coronavirus 2, U2OS; SARS-CoV-2, U2-OS ACE2 cells, MOI 0.1, 20 hours
U2-OS ACE2 cells = assay: Cytotoxicity on U2-OS ACE2 cells (Hoechst signal); settings: 20 hours
MDCK cells [4] = system: MDCK cells

In the case of “Pentandioic acid imidazolylethanamide [Ingavirin, reference compound]”, the “CC50 (MDCK)” value (MDCK cells [1]) is reported as 300 ± 12 µg/mL.

In the case of `COC(=O)c1c(N(Cc2ccccc2F)C(C)=O)sc2c(CN(C)C)c(O)ccc12` [Example 52], the CC50 at 48 h [2] is reported as 180 ± 16 µg/mL (≈ 418 µM), the GHS hazard class [3] is reported as 5 and the Died ([3]; 2000 mg/kg) is reported as 0. For the same compound, the Survived ([3]; 2000 mg/kg) was 4.

In the case of `COC(=O)c1c(N(Cc2ccccc2)C(C)=O)sc2c(CN(C)C)c(O)ccc12` [Example 50, Methyl 2-[acelyl (benzyl)amino-7-[(dimethylamino)methyl]-6-hydroxy-1-benzothiophene-3-carboxylate], the IC50 (SARS-CoV-2 coronavirus) is reported as 9.08 µM, the CC50 at 48 h [2] is reported as 182 µg/mL (≈ 441 µM) and the Cytotoxicity (U2-OS ACE2 cells) is reported as “Non-toxic up to 2500 μM”.

With `COC(=O)c1c(N(Cc2ccc(F)cc2F)C(C)=O)sc2c(CN(C)C)c(O)ccc12` [Example 55] the IC50 (SARS-CoV-2 coronavirus) was 15.6 µM, the melting point was 118 to 122 °C and the CC50 at 48 h [2] was > 300 µg/mL. For the same compound, the Cytotoxicity (U2-OS ACE2 cells) was “Non-toxic up to 2500 μM”.

In the case of `CCN(CC)Cc1c(O)ccc2c(C(=O)OC)c(N(Cc3ccccc3)C(C)=O)sc12` [Example 64, hydrochloride], the IC50 (SARS-CoV-2 coronavirus) is reported as 9.12 µM, the CC50 at 48 h [2] is reported as 148 ± 11 µg/mL and the Cytotoxicity (U2-OS ACE2 cells) is reported as “Non-toxic up to 2500 μM”.

In the case of `CCOC(=O)c1c(CSc2ccccc2)n(C)c2cc(Br)c(O)c(CN(C)C)c12` [Umifenovir, reference compound], the IC50 (SARS-CoV-2 coronavirus) is reported as 76 µM, the CC50 at 48 h [2] is reported as 16 µg/mL (≈ 33.5 µM) and the Cytotoxicity (U2-OS ACE2 cells) is reported as “Non-toxic up to 2500 μM”.

With `COC(=O)c1c(N(Cc2ccccc2)C(C)=O)sc2c(CN3CCN(C)CC3)c(O)ccc12` [Example 65, Methyl 2-[acetyl(benzyl)amino-6-hydroxy-7-[(4-methylpiperazin-1-yl)methyl]-1-benzothiophene-3-carboxylate hydrochloride] the IC50 (SARS-CoV-2 coronavirus) was 9.8 µM, the CC50 at 48 h [2] was 18.7 ± 1.6 µg/mL and the Cytotoxicity (U2-OS ACE2 cells) was “Non-toxic up to 2500 μM”.

In the case of `CNC(=O)c1c(N(Cc2ccccc2)C(C)=O)sc2cc(O)ccc12` [Example 73, 2-[acetyl(benzyl)amino]-6-hydroxy-N-methyl-1-benzothiophene-3-carboxamide], the IC50 (SARS-CoV-2 coronavirus) is reported as 23 µM, the CC50 at 48 h [2] is reported as > 300 µg/mL and the Cytotoxicity (U2-OS ACE2 cells) is reported as “Non-toxic up to 2500 μM”. The GHS hazard class [3] was 5, the Died ([3]; 2000 mg/kg) was 0 and the Survived ([3]; 2000 mg/kg) was 4.

With `COC(=O)c1c(N(Cc2ccccc2)C(C)=O)sc2c(CN(C)C)c(O)ccc12` [Example 61, Methyl 2-[acetyl(benzyl)amino-7-[(dimethylamino)methyl]-6-hydroxy-1-benzothiophene-3-carboxylate hydrochloride] the “CC50 (MDCK)” value (MDCK cells [1]; hydrochloride) was >300 µg/mL, the GHS hazard class [3] was 4 and the Died ([3]; 300 mg/kg) was 0. It also gave a Survived ([3]; 300 mg/kg) of 4, a Died ([3]; 2000 mg/kg) of 1 and a Survived ([3]; 2000 mg/kg) of 1.

With `CSc1nc2nnc([N+](=O)[O-])c(=O)n2[nH]1` [Triazavirin, Methylthionitrooxodihydro-triazolotriazinide sodium] the “CC50 (MDCK)” value (MDCK cells [4]) was 298 ± 22 µg/mL.

Work on `COC(=O)c1c(N(Cc2ccccc2)C(C)=O)sc2cc(O)ccc12` [Example 4, Methyl 2-[acetyl(benzyl)amino]-6-hydroxy-1-benzothiophene-3-carboxylate] yielded an IC50 (SARS-CoV-2 coronavirus) of 10.6 µM, a melting point of 165 to 167 °C and a CC50 at 48 h [2] of 200 µg/mL (≈ 563 µM). For the same compound, the Cytotoxicity (U2-OS ACE2 cells) was “Non-toxic up to 2500 μM”.

For `CNC(=O)c1c(N(Cc2ccccc2)C(C)=O)sc2c(Cl)c(O)ccc12` [Example 72, 2-[acetyl(benzyl)amino]-7-chloro-6-hydroxy-N-methyl-1-benzothiophene-3-carboxamide], the CC50 at 48 h [2] was 160 ± 11 µg/mL (≈ 411 µM), the GHS hazard class [3] was 5 and the Died ([3]; 2000 mg/kg) was 0. It also gave a Survived ([3]; 2000 mg/kg) of 4.

For `COC(=O)c1c(N(Cc2ccccc2F)C(C)=O)sc2c(Cl)c(O)ccc12` [Example 23, Methyl 2-[acetyl(2-fluorobenzyl)amino]-7-chloro-6-hydroxy-1-benzothiophene-3-carboxylate], the CC50 at 48 h [2] was > 300 µg/mL, the GHS hazard class [3] was 5 and the Died ([3]; 2000 mg/kg) was 0. It also gave a Survived ([3]; 2000 mg/kg) of 4.

`COC(=O)c1c(N(Cc2ccc(C(F)(F)F)cc2)C(C)=O)sc2cc(O)ccc12` [Example 22, Methyl 2-[acetyl(4-trifluoromethylbenzyl)amino]-6-hydroxy-1-benzothiophene-3-carboxylate] showed a melting point of 171 to 175 °C and a CC50 at 48 h [2] of 3.2 ± 0.8 µg/mL (≈ 7.56 µM).

For `CC(=O)N(Cc1ccccc1)c1sc2cc(O)ccc2c1C(=O)O` [Example 67, 2-[acetyl(benzyl)amino]-6-hydroxy-1-benzothiophene-3-carboxylic acid], the melting point was 130 to 135 °C and the CC50 at 48 h [2] was > 300 µg/mL.

For `COC(=O)c1c(N(Cc2ccc(F)cc2)C(C)=O)sc2c(CN(C)C)c(O)ccc12` [Example 62, Methyl 2-[acetyl(4-fluorobenzyl)amino-7-[(dimethylamino)methyl]-6-hydroxy-1-benzothiophene-3-carboxylate hydrochloride], the IC50 (SARS-CoV-2 coronavirus) was 11.3 µM, the CC50 at 48 h [2] was 92 ± 7 µg/mL and the Cytotoxicity (U2-OS ACE2 cells) was “Non-toxic up to 2500 μM”.
